Literature values in patent publication EP1558263B1, “PROLONGED RELEASE PHARMACEUTICAL COMPOSITION” (Akzo Nobel N.V., priority 2002, dated 2004).
Converted amounts (≈) assume the structure as drawn.

Test system: Mannheimia haemolytica
Settings: pathogen of respiratory tract infections in cattle

Structure (SMILES): CO/N=C(\C(=O)N[C@@H]1C(=O)N2C(C(=O)[O-])=C(C[n+]3cccc4c3CCCC4)CS[C@H]12)c1csc(N)n1 [Cefquinome, cefquinome]
- MIC90: 0.25 µg/mL (≈ 0.473 µM)
